# Laboratory results published in paper PMC8617944, “Preclinical Pharmacokinetics and Acute Toxicity in Rats of 5-{[(2E)-3-Bromo-3-carboxyprop-2-enoyl]amino}-2-hydroxybenzoic Acid: A Novel 5-Aminosalicylic Acid Derivative with Potent Anti-Inflammatory Activity” (Molecules, 2021).
# “Also recorded” adds a separate entry of the source. Like-named read-outs stand apart in the source and are kept apart here.
# Test: Distribution of C1 in tissues
# Format: in vivo, Wistar rats
# Details: p.o. 75 mg/kg
# Procedure: Fifteen male Wistar rats were distributed in five groups (n = 3) and rats were orally administered C1 at a single dose of 75 mg/kg. Subsequently, a group of animals was sacrificed (n = 3) at 10, 30, 90, 180, and 360 min. […] All tissues and organs were weighed on an analytical balance and immediately processed. Each tissue sample was homogenized with saline solution in a 1:3 (wt/v) ratio. The preparation process for analysis was the same as described above for plasma samples [57] (File S8).
compound,measurement,setting,value
"O=C(/C=C(/Br)C(=O)O)Nc1ccc(O)c(C(=O)O)c1 [Compound C1, 5-{[(2E)-3-bromo-3-carboxyprop-2-enoyl]amino}-2-hydroxybenzoic acid]",concentration at 6 h,"male, Wistar, rat, heart, po, 75 mg/kg, Hearth, 6 h, n = 3, read-out: Average Concentration",2.7 µg/mL
same,concentration at 30 min,"male, Wistar, rat, heart, po, 75 mg/kg, Hearth, individual rats, read-out: Concentration (µg/mL) at 30 minutes, Rat 1-3",3.8 µg/mL
same,concentration at 90 min,"male, Wistar, rat, heart, po, 75 mg/kg, Hearth, individual rats, read-out: Concentration (µg/mL) at 90 minutes, Rat 1-3",2.7 µg/mL
same,concentration at 3 h,"male, Wistar, rat, heart, po, 75 mg/kg, Hearth, individual rats, read-out: Concentration (µg/mL) at 3 h, Rat 1-3",2.5 µg/mL
same,concentration at 6 h,"male, Wistar, rat, heart, po, 75 mg/kg, Hearth, individual rats, read-out: Concentration (µg/mL) at 6 h, Rat 1-3",2.4 µg/mL
same,concentration at 10 min,"male, Wistar, rat, kidney, po, 75 mg/kg, Kidney, 10 min, n = 3, read-out: Average Concentration",16 µg/mL
same,concentration at 30 min,"male, Wistar, rat, kidney, po, 75 mg/kg, Kidney, 30 min, n = 3, read-out: Average Concentration",6.9 µg/mL
same,concentration at 90 min,"male, Wistar, rat, kidney, po, 75 mg/kg, Kidney, 90 min, n = 3, read-out: Average Concentration",4.8 µg/mL
same,concentration at 3 h,"male, Wistar, rat, kidney, po, 75 mg/kg, Kidney, 3 h, n = 3, read-out: Average Concentration",4.7 µg/mL
same,concentration at 6 h,"male, Wistar, rat, kidney, po, 75 mg/kg, Kidney, 6 h, n = 3, read-out: Average Concentration",4.1 µg/mL
same,concentration at 30 min,"male, Wistar, rat, kidney, po, 75 mg/kg, Kidney, individual rats, read-out: Concentration (µg/mL) at 30 minutes, Rat 1-3",6.1 µg/mL
same,concentration at 90 min,"male, Wistar, rat, kidney, po, 75 mg/kg, Kidney, individual rats, read-out: Concentration (µg/mL) at 90 minutes, Rat 1-3",3.6 µg/mL
same,concentration at 10 min,"male, Wistar, rat, liver, po, 75 mg/kg, Liver, 10 min, n = 3, read-out: Average Concentration",4.6 µg/mL
same,concentration at 30 min,"male, Wistar, rat, liver, po, 75 mg/kg, Liver, 30 min, n = 3, read-out: Average Concentration",6.4 µg/mL
same,concentration at 90 min,"male, Wistar, rat, liver, po, 75 mg/kg, Liver, 90 min, n = 3, read-out: Average Concentration",4.4 µg/mL
same,concentration at 3 h,"male, Wistar, rat, liver, po, 75 mg/kg, Liver, 3 h, n = 3, read-out: Average Concentration",4.9 µg/mL
same,concentration at 6 h,"male, Wistar, rat, liver, po, 75 mg/kg, Liver, 6 h, n = 3, read-out: Average Concentration",4.2 µg/mL
same,concentration at 10 min,"male, Wistar, rat, liver, po, 75 mg/kg, Liver, individual rats, read-out: Concentration (µg/mL) at 10 minutes, Rat 1-3",4.4 µg/mL
same,concentration at 30 min,"male, Wistar, rat, liver, po, 75 mg/kg, Liver, individual rats, read-out: Concentration (µg/mL) at 30 minutes, Rat 1-3",5.8 µg/mL
same,concentration at 10 min,"male, Wistar, rat, lung, po, 75 mg/kg, Lung, 10 min, n = 3, read-out: Average Concentration",15.7 µg/mL
same,concentration at 30 min,"male, Wistar, rat, lung, po, 75 mg/kg, Lung, 30 min, n = 3, read-out: Average Concentration",10.7 µg/mL
same,concentration at 90 min,"male, Wistar, rat, lung, po, 75 mg/kg, Lung, 90 min, n = 3, read-out: Average Concentration",7.4 µg/mL
same,concentration at 3 h,"male, Wistar, rat, lung, po, 75 mg/kg, Lung, 3 h, n = 3, read-out: Average Concentration",7.2 µg/mL
same,concentration at 6 h,"male, Wistar, rat, lung, po, 75 mg/kg, Lung, 6 h, n = 3, read-out: Average Concentration",6.3 µg/mL
same,concentration at 10 min,"male, Wistar, rat, muscle, po, 75 mg/kg, Muscle, 10 min, n = 3, read-out: Average Concentration",4.7 µg/mL
same,concentration at 30 min,"male, Wistar, rat, muscle, po, 75 mg/kg, Muscle, 30 min, n = 3, read-out: Average Concentration",3.8 µg/mL
same,concentration at 90 min,"male, Wistar, rat, muscle, po, 75 mg/kg, Muscle, 90 min, n = 3, read-out: Average Concentration",3.3 µg/mL
same,concentration at 3 h,"male, Wistar, rat, muscle, po, 75 mg/kg, Muscle, 3 h, n = 3, read-out: Average Concentration",2.7 µg/mL
same,concentration at 6 h,"male, Wistar, rat, muscle, po, 75 mg/kg, Muscle, 6 h, n = 3, read-out: Average Concentration",2.5 µg/mL
same,concentration at 10 min,"male, Wistar, rat, muscle, po, 75 mg/kg, Muscle, individual rats, read-out: Concentration (µg/mL) at 10 minutes, Rat 1-3",4.8 µg/mL
same,concentration at 30 min,"male, Wistar, rat, muscle, po, 75 mg/kg, Muscle, individual rats, read-out: Concentration (µg/mL) at 30 minutes, Rat 1-3",3.4 µg/mL
same,concentration at 90 min,"male, Wistar, rat, muscle, po, 75 mg/kg, Muscle, individual rats, read-out: Concentration (µg/mL) at 90 minutes, Rat 1-3",3.2 µg/mL
same,concentration at 3 h,"male, Wistar, rat, muscle, po, 75 mg/kg, Muscle, individual rats, read-out: Concentration (µg/mL) at 3 h, Rat 1-3",3 µg/mL
same,Tmax,"male, Wistar, rat, po, rats, read-out: time of maximum concentration in tissues and organs (converted)",10 min
same,concentration at 10 min,"male, Wistar, rat, small intestine, po, 75 mg/kg, Small intestine, 10 min, n = 3, read-out: Average Concentration",31.6 µg/mL
same,concentration at 30 min,"male, Wistar, rat, small intestine, po, 75 mg/kg, Small intestine, 30 min, n = 3, read-out: Average Concentration",15.7 µg/mL
same,concentration at 90 min,"male, Wistar, rat, small intestine, po, 75 mg/kg, Small intestine, 90 min, n = 3, read-out: Average Concentration",15.8 µg/mL
same,concentration at 3 h,"male, Wistar, rat, small intestine, po, 75 mg/kg, Small intestine, 3 h, n = 3, read-out: Average Concentration",14.8 µg/mL
same,concentration at 6 h,"male, Wistar, rat, small intestine, po, 75 mg/kg, Small intestine, 6 h, n = 3, read-out: Average Concentration",10.1 µg/mL
same,concentration at 90 min,"male, Wistar, rat, small intestine, po, 75 mg/kg, Small intestine, individual rats, read-out: Concentration (µg/mL) at 90 minutes, Rat 1-3",15.1 µg/mL
same,concentration at 3 h,"male, Wistar, rat, small intestine, po, 75 mg/kg, Small intestine, individual rats, read-out: Concentration (µg/mL) at 3 h, Rat 1-3",14.2 µg/mL
same,concentration at 6 h,"male, Wistar, rat, small intestine, po, 75 mg/kg, Small intestine, individual rats, read-out: Concentration (µg/mL) at 6 h, Rat 1-3",9.1 µg/mL
same,concentration at 10 min,"male, Wistar, rat, spleen, po, 75 mg/kg, Spleen, 10 min, n = 3, read-out: Average Concentration",31.8 µg/mL
same,concentration at 30 min,"male, Wistar, rat, spleen, po, 75 mg/kg, Spleen, 30 min, n = 3, read-out: Average Concentration",17.2 µg/mL
same,concentration at 90 min,"male, Wistar, rat, spleen, po, 75 mg/kg, Spleen, 90 min, n = 3, read-out: Average Concentration",11.7 µg/mL
same,concentration at 3 h,"male, Wistar, rat, spleen, po, 75 mg/kg, Spleen, 3 h, n = 3, read-out: Average Concentration",8.7 µg/mL
same,concentration at 6 h,"male, Wistar, rat, spleen, po, 75 mg/kg, Spleen, 6 h, n = 3, read-out: Average Concentration",7.8 µg/mL
same,concentration at 10 min,"male, Wistar, rat, spleen, po, 75 mg/kg, Spleen, individual rats, read-out: Concentration (µg/mL) at 10 minutes, Rat 1-3",30 µg/mL
same,concentration at 30 min,"male, Wistar, rat, spleen, po, 75 mg/kg, Spleen, individual rats, read-out: Concentration (µg/mL) at 30 minutes, Rat 1-3",21 µg/mL
same,concentration at 10 min,"male, Wistar, rat, stomach, po, 75 mg/kg, Stomach, 10 min, n = 3, read-out: Average Concentration",18.3 µg/mL
same,concentration at 30 min,"male, Wistar, rat, stomach, po, 75 mg/kg, Stomach, 30 min, n = 3, read-out: Average Concentration",10.2 µg/mL
same,concentration at 90 min,"male, Wistar, rat, stomach, po, 75 mg/kg, Stomach, 90 min, n = 3, read-out: Average Concentration",7.9 µg/mL
same,concentration at 3 h,"male, Wistar, rat, stomach, po, 75 mg/kg, Stomach, 3 h, n = 3, read-out: Average Concentration",6.4 µg/mL
same,concentration at 6 h,"male, Wistar, rat, stomach, po, 75 mg/kg, Stomach, 6 h, n = 3, read-out: Average Concentration",4.7 µg/mL
same,concentration at 10 min,"male, Wistar, rat, testis, po, 75 mg/kg, Testis, 10 min, n = 3, read-out: Average Concentration",9.9 µg/mL
same,concentration at 30 min,"male, Wistar, rat, testis, po, 75 mg/kg, Testis, 30 min, n = 3, read-out: Average Concentration",3.8 µg/mL
same,concentration at 90 min,"male, Wistar, rat, testis, po, 75 mg/kg, Testis, 90 min, n = 3, read-out: Average Concentration",4 µg/mL
same,concentration at 3 h,"male, Wistar, rat, testis, po, 75 mg/kg, Testis, 3 h, n = 3, read-out: Average Concentration",3 µg/mL
same,concentration at 6 h,"male, Wistar, rat, testis, po, 75 mg/kg, Testis, 6 h, n = 3, read-out: Average Concentration",3.1 µg/mL
same,concentration at 30 min,"male, Wistar, rat, testis, po, 75 mg/kg, Testis, individual rats, read-out: Concentration (µg/mL) at 30 minutes, Rat 1-3",4 µg/mL
same,concentration at 3 h,"male, Wistar, rat, testis, po, 75 mg/kg, Testis, individual rats, read-out: Concentration (µg/mL) at 3 h, Rat 1-3",3.1 µg/mL
same,concentration at 6 h,"male, Wistar, rat, testis, po, 75 mg/kg, Testis, individual rats, read-out: Concentration (µg/mL) at 6 h, Rat 1-3",2.1 µg/mL
same,crossing of blood-brain barrier and hemato-testicular barrier,"rats, 75 mg/kg",able to cross the blood-brain barrier and hemato-testicular barrier; also recorded: crossed the hemato-encephalic barrier
